Conditions: mouse, in vivo, iv

In the case of `CN(Cc1cnc2nc(N)nc(N)c2n1)c1ccc(C(=O)N[C@@H](CCC(=O)O)C(=O)O)cc1` [MTX, methotrexate], the plasma concentrations is reported as “did not reach the levels in nude mice that they do in patients receiving clinical doses”.
In the case of `O=c1[nH]cc(F)c(=O)[nH]1` [5FU, 5-fluorouracil], the plasma concentrations is reported as “did not reach the levels in nude mice that they do in patients receiving clinical doses”.

— patent US20030165954A1, “Cancer profiles” (Third Wave Technologies, Inc., priority 2002, published 2003)
